The record followed here is patent US7928140B2, “Benzothiazole PI3 kinase modulators for cancer treatment” (Amgen Inc., priority 2007, dated 2011).

SMILES strings stand for the structures. Where two headings read alike, the source gives them in different places.

Experiment [1] concerns the target T1, PI3K α (Homo sapiens, UniProt P42336).
T1 construct: Full length p110 subunits of PI3K α, β and δ, N-terminally labeled with polyHis tag; polyHis (N); made in house; host or cells: Sf9 insect cells (baculovirus)
Nature of the experiment: In vitro PI3 kinase enzyme assay (alpha), ATP loss, bioluminescence.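 Further: purified p110α/p85 heterodimer acting on PtdIns(4,5)P2 at room temperature, remaining ATP read by luminescence, inhibition scaled between compound-free wells with and without enzyme.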 The experiment is classed as biochemical. The settings on record: read-out: PI3Kα ATP loss IC50.

For experiment [2], the system named is phosphorylation of Serine 473 in Akt, HCT 116 human colon carcinoma cells. Nature of the experiment: Cell-based phospho-AKT Ser473 assay (MSD sandwich immunoassay, IGF-1 stimulated). The settings on record: Homo sapiens. Here is the method: This assay determines the ability of test compounds to inhibit the phosphorylation of […] in Akt using a MSD based sandwich immunoassay (Meso Scale Detection, catalogue # N411CAB-1). […] Prior to the assay cells were detached from the culture flask with trypsin, and re-suspended in complete media to give a final concentration of 1.6×10^5 cells per ml. Aliquots (100 μl) of the HCT116 cell suspension were seeded into each well of a 96 well tissue culture plate (Corning Incorporated COSTAR, catalogue#3595) to give a final density of 16,000 cells per well. Cells were then incubated overnight at 37° C. The following day the cells were treated with serially diluted test compounds and incubated for 2 hours at 37° C. […] As a maximum response control, wells contained 0.5% DMSO in place of test compound. The plates were mixed at 700 rpm for 2 min to ensure even distribution of the test compound and incubated for 2 hours at 37° C. Cells were then stimulated with insulin-like growth factor 1 (Sigma, product #13769) at final concentration of 100 ng/ml for 15 minutes at 37° C. The media was then removed and the cells treated with 80 μl cell-lysis buffer (MSD) containing a cocktail of protease and phosphatase inhibitors for one hour at 4° C. […] The detection antibody was removed and plates were then washed four times with 200 μl per well of Tris wash buffer. An aliquot of 150 μl of diluted MSD read buffer was then applied to each well, and the electrochemiluminescent signal was measured using a MSD SECTORTM plate reader. This instrument measures the intensity of emitted light to determine a quantitative measure of phosphorylated Akt in each well. The dose-response data obtained with each compound were analyzed and the IC50 inhibition of Akt phosphorylation at Ser473 calculated.

Experiment [3] addresses T2, PI3K β (Homo sapiens, UniProt P42338).
T2 construct: Full length p110 subunits of PI3K α, β and δ, N-terminally labeled with polyHis tag; polyHis (N); made in house; host or cells: Sf9 insect cells (baculovirus)
In words: In vitro PI3 kinase enzyme assay (beta), ATP loss, bioluminescence.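 Further: purified p110β/p85 heterodimer with PtdIns(4,5)P2 as acceptor, incubated at room temperature, leftover ATP read by luminescence, inhibition scaled to compound-free wells with and without enzyme.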 The experiment is classed as biochemical. The settings on record: read-out: PI3Kβ ATP loss IC50.

The mark [4] stands for this setting: HCT-116, HCT 116 cells, read-out: HCT 116 pAKT IC50.
Where [5] appears, read: HCT-116, read-out: HCT 116 pAKT IC50.

What is called IC50 is the concentration needed to halve the response being measured.

T2 sequence (P42338 whole entry): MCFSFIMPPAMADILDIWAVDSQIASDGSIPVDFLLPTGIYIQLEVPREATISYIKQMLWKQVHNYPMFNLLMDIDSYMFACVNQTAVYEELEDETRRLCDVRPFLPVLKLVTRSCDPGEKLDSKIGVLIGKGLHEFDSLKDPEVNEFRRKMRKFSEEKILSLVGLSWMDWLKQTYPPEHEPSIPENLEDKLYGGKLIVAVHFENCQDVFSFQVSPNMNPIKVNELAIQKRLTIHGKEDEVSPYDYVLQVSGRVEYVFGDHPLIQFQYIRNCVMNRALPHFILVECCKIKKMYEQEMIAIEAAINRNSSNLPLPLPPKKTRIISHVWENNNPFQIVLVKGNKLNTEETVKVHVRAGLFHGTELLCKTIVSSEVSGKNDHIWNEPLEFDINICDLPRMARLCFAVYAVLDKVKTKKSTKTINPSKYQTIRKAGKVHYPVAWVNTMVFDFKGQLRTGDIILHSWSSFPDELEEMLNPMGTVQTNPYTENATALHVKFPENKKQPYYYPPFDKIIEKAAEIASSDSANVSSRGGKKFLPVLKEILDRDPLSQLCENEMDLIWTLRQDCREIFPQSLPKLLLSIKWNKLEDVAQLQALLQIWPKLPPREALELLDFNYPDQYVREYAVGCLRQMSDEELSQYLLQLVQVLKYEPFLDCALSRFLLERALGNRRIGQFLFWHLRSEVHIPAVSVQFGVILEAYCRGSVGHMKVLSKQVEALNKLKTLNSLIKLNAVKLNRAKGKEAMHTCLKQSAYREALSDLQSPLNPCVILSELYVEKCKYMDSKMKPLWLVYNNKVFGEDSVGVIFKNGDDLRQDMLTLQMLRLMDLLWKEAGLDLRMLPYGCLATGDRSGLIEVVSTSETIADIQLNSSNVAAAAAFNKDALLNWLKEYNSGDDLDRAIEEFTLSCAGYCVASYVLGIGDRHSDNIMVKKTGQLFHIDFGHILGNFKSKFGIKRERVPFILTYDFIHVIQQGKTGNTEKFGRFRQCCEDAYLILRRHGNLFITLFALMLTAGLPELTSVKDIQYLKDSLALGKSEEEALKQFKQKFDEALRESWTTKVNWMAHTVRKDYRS
T2 sequence (P27986 whole entry partner): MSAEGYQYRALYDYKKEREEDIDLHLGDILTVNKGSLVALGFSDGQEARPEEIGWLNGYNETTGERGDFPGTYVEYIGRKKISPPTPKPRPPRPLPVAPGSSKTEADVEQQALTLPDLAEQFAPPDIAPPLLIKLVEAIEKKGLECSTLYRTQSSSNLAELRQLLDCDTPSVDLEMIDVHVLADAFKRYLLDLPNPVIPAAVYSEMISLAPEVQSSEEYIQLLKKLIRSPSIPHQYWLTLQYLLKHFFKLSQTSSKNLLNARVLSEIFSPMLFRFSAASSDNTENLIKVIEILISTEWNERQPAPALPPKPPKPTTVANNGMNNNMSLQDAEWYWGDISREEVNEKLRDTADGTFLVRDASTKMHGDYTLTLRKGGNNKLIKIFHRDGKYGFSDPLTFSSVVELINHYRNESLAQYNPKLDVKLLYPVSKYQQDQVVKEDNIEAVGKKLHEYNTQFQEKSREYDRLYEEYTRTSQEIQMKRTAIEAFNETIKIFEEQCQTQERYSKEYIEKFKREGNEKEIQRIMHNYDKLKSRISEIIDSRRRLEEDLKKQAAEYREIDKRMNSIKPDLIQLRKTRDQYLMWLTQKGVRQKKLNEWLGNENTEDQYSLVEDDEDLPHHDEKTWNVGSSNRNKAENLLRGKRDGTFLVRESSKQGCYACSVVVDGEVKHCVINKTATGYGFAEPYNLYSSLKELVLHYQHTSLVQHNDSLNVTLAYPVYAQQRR
T1 sequence (P42336 whole entry, species assumed): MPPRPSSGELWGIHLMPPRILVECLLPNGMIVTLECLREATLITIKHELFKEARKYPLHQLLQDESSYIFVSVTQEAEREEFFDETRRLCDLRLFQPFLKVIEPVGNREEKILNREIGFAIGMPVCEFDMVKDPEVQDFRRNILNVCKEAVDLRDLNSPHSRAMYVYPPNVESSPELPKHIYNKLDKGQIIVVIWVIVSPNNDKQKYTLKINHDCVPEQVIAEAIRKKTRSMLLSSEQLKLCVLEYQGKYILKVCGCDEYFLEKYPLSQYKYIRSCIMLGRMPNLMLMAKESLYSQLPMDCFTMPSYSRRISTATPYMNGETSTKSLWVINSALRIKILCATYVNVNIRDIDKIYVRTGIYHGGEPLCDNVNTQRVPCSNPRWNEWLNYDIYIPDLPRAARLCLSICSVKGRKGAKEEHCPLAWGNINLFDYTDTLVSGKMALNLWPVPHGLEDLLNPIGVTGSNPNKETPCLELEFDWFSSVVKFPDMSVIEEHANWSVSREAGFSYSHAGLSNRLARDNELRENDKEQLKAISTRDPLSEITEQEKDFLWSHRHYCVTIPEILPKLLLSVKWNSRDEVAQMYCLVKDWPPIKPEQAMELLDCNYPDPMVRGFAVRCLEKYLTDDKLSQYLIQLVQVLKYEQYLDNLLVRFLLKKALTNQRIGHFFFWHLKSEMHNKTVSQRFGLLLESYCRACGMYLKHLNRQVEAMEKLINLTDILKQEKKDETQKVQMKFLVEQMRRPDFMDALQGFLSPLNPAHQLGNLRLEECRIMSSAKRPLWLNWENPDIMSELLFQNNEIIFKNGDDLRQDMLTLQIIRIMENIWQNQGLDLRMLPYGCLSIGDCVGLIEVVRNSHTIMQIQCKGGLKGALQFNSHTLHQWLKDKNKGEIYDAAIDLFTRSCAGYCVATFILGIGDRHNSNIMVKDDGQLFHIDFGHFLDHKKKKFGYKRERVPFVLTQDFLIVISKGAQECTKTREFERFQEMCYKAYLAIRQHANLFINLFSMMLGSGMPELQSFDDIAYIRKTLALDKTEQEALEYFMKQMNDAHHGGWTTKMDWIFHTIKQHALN
T1 sequence (P27986 whole entry partner, species assumed): as the sequence (P27986 whole entry partner) above

For the compound `CC(=O)Nc1nc2ccc(-c3ccnc(N(C)S(=O)(=O)c4ccc5ccccc5c4)n3)cc2s1` [Example 214, N-(6-(2-(N-methylnaphthalene-2-sulfonamido)pyrimidin-4-yl)benzo[d]thiazol-2-yl)acetamide], the values for the IC50 in experiment [1], in experiment [2] (setting [4]) and in experiment [3] were 74 nM, 256 nM and 86.2 nM, respectively.

In the case of `COc1ccc(S(=O)(=O)Nc2cc(-c3ccc4nc(NC(C)=O)sc4c3)cnc2Cl)cc1` [Example 163, N-(6-(6-Chloro-5-(4-methoxyphenylsulfonamido)pyridin-3-yl)benzo[d]thiazol-2-yl)acetamide], the IC50 was 3 nM in experiment [1], 3.8 nM in experiment [2] (setting [4]) and 3.8 nM in experiment [3].

Regarding `O=S(=O)(Nc1cc(-c2ccc3ncoc3c2)cnc1Cl)c1ccc(F)cc1` [Example 326, N-(5-(1,3-benzoxazol-6-yl)-2-chloro-3-pyridinyl)-4-fluorobenzenesulfonamide], the half-maximal inhibitory concentration (IC50) in experiment [1] was 22.3 nM; in experiment [2] (setting [4]) it was greater than 5000 nM; in experiment [3], 34.5 nM.

As for `Nc1nc2ccc(-c3cnc(Cl)c(NS(=O)(=O)c4ccc(C(F)(F)F)cc4Cl)c3)cc2s1` [Example 308, N-(5-(2-amino-1,3-benzothiazol-6-yl)-2-chloro-3-pyridinyl)-2-chloro-4-(trifluoromethyl)benzenesulfonamide], the IC50 in experiment [1] amounted to 2.6 nM; in experiment [2] (setting [4]), 501 nM; in experiment [3], 10.6 nM.

`CC(=O)Nc1nc2ccc(-c3ccnc(Sc4ccc(F)cc4)n3)cc2s1` [Example 26, N-(6-(2-((4-fluorophenyl)sulfanyl)-4-pyrimidinyl)-1,3-benzothiazol-2-yl)acetamide]: the IC50 in experiment [1] amounted to 122 nM; in experiment [2] (setting [4]), 1020 nM; in experiment [3] it was 407 nM.

On to `CC(=O)Nc1nc2c(F)cc(-c3cccc(S(=O)(=O)c4ccccc4F)n3)cc2s1` [Example 137, N-(4-fluoro-6-(6-((2-fluorophenyl)sulfonyl)-2-pyridinyl)-1,3-benzothiazol-2-yl)acetamide], for which the IC50 was determined as 65 nM in experiment [1], 901 nM in experiment [2] (setting [4]) and 1140 nM in experiment [3].

On to `CC(=O)Nc1nc2ccc(-c3cnc(Cl)c(NS(=O)(=O)c4ccsc4)c3)cc2s1` [Example 187, N-(6-(6-chloro-5-(thiophene-4-sulfonamido)pyridin-3-yl)benzo[d]thiazol-2-yl)acetamide], for which the IC50 in experiment [1] came out at 21.1 nM; in experiment [2] (setting [4]), 37.4 nM; in experiment [3], 42.1 nM.

On to `CN(C)c1cc(-c2ccc3nc(NC(=O)Oc4ccccc4)sc3c2)cnc1Cl` [Example 270, Phenyl 6-(6-chloro-5-(dimethylamino)pyridin-3-yl)benzo[d]thiazol-2-ylcarbamate], for which the IC50 is 34.6 nM in experiment [1], greater than 5000 nM in experiment [2] (setting [5]) and 2460 nM in experiment [3].

In the case of `Nc1nc2ccc(-c3cnc(Cl)c(NS(=O)(=O)c4ccc(Cl)cc4F)c3)cc2s1` [Example 313, N-(5-(2-amino-1,3-benzothiazol-6-yl)-2-chloro-3-pyridinyl)-4-chloro-2-fluorobenzenesulfonamide], the IC50 in experiment [1] was determined as 13.6 nM; in experiment [2] (setting [4]) it was 424 nM; in experiment [3] it was 27.9 nM.

For the compound `CC(=O)Nc1nc2ccc(-c3cncc(Sc4ccccc4F)n3)cc2s1` [Example 130, N-(6-(6-((2-fluorophenyl)sulfanyl)-2-pyrazinyl)-1,3-benzothiazol-2-yl)acetamide], the IC50 was found to be 39 nM in experiment [1], 442 nM in experiment [2] (setting [4]) and 65 nM in experiment [3].

As to `CN(C)c1cc(-c2ccc3nc(N)sc3c2)cnc1Cl` [Example 274, 6-(6-Chloro-5-(dimethylamino)pyridin-3-yl)benzo[d]thiazol-2-amine], the IC50 in experiment [1] worked out at 191 nM; in experiment [2] (setting [4]), 985 nM; in experiment [3] it was 613 nM.

`COc1cccc(S(=O)(=O)c2cccc(-c3ccc4nc(NC(C)=O)sc4c3)n2)c1` [Example 69, N-(6-(6-((3-methoxyphenyl)sulfonyl)-2-pyridinyl)-1,3-benzothiazol-2-yl)acetamide]: the concentration for half-maximal inhibition (IC50) was found to be 46.5 nM in experiment [1], 296 nM in experiment [2] (setting [4]) and 284 nM in experiment [3].

`CNc1nc2ccc(-c3cnc(Cl)c(NS(=O)(=O)c4c(C)cccc4Cl)c3)cc2s1` [Example 318, 2-chloro-N-(2-chloro-5-(2-(methylamino)-1,3-benzothiazol-6-yl)-3-pyridinyl)-6-methylbenzenesulfonamide]: the results for the IC50 in experiment [1], in experiment [2] (setting [4]) and in experiment [3] were 11.2 nM, 329 nM and 42.3 nM, respectively.

`CC(=O)Nc1nc2ccc(-c3cnc(C#N)c(N)c3)cc2s1` [Example 268, N-(6-(5-amino-6-cyanopyridin-3-yl)benzo[d]thiazol-2-yl)acetamide]: the results for the 50% inhibitory concentration (IC50) in experiment [1], in experiment [2] (setting [4]) and in experiment [3] were 241 nM, 842 nM and 17000 nM, respectively.

Turning to `CNc1nc2ccc(-c3cnc(Cl)c(NS(=O)(=O)c4c(Cl)cccc4Cl)c3)cc2s1` [Example 319, 2,6-dichloro-N-(2-chloro-5-(2-(methylamino)-1,3-benzothiazol-6-yl)-3-pyridinyl)benzenesulfonamide], the IC50 in experiment [1] came out at 9.2 nM; in experiment [2] (setting [4]) it was 474 nM; in experiment [3] it was 36.5 nM.

On to `CC(=O)Nc1nc2c(F)cc(-c3cncc(NS(=O)(=O)c4ccc(C(F)(F)F)cc4)c3)cc2s1` [Example 117, N-(4-fluoro-6-(5-(4-(trifluoromethyl)phenylsulfonamido)pyridin-3-yl)benzo[d]thiazol-2-yl)acetamide], for which the IC50 in experiment [1] amounted to 7.7 nM; in experiment [2] (setting [5]) it was 301 nM; in experiment [3] it was 55.8 nM.

`CC(=O)Nc1nc2ccc(-c3cncc(N(C)S(=O)(=O)c4ccc(F)c(F)c4)c3)cc2s1` [Example 222, N-(6-(5-(3,4-difluoro-N-methylphenylsulfonamido)pyridin-3-yl)benzo[d]thiazol-2-yl)acetamide]: the values for the IC50 in experiment [1], in experiment [2] (setting [4]) and in experiment [3] were 377 nM, 2180 nM and 2890 nM, respectively.

As to `CNc1nc2ccc(-c3cnc(Cl)c(NS(=O)(=O)c4ccc(C(C)(C)NC(C)=O)cc4)c3)cc2s1` [Example 322, N-(1-(4-((2-chloro-5-(2-(methylamino)-1,3-benzothiazol-6-yl)-3-pyridinyl)sulfamoyl)phenyl)-1-methylethyl)acetamide], the figures for the IC50 in experiment [1], in experiment [2] (setting [4]) and in experiment [3] were 10.8 nM, 558 nM and 25.4 nM, respectively.

In the case of `CNc1nc2ccc(-c3cnc(Cl)c(NS(=O)(=O)c4ccc(C(C)=O)cc4)c3)cc2s1` [Example 321, 4-acetyl-N-(2-chloro-5-(2-(methylamino)-1,3-benzothiazol-6-yl)-3-pyridinyl)benzenesulfonamide], the half-inhibitory concentration (IC50) is 12 nM in experiment [1], 672 nM in experiment [2] (setting [4]) and 22.2 nM in experiment [3].

For the compound `CC(=O)Nc1nc2ccc(-c3ccnc(OCc4cccnc4)n3)cc2s1` [Example 2, N-(6-(2-(3-pyridinylmethoxy)-4-pyrimidinyl)-1,3-benzothiazol-2-yl)acetamide], the IC50 was 452 nM in experiment [1], 789 nM in experiment [2] (setting [4]) and greater than 40000 nM in experiment [3].

As to `CC(=O)Nc1nc2ccc(-c3cncc(N(C)S(=O)(=O)c4ccc(C(C)(C)C)cc4)c3)cc2s1` [Example 223, N-(6-(5-(4-tert-butyl-N-methylphenylsulfonamido)pyridin-3-yl)benzo[d]thiazol-2-yl)acetamide], the half-inhibitory concentration (IC50) in experiment [1] came out at 53.5 nM; in experiment [2] (setting [4]) it was 417 nM; in experiment [3] it was 3820 nM.

`CC(C)Nc1cc(-c2ccc3nc(NC(=O)C[C@@H]4CCCO4)sc3c2)cnc1Cl` [Example 151, N-(6-(6-chloro-5-((1-methylethyl)amino)-3-pyridinyl)-1,3-benzothiazol-2-yl)-2-((2S)-tetrahydro-2-furanyl)acetamide]: the IC50 is 230 nM in experiment [1], greater than 5000 nM in experiment [2] (setting [4]) and 1620 nM in experiment [3].

On to `CC(=O)Nc1nc2ccc(-c3cncc(NS(=O)(=O)c4ccc(C(F)(F)F)cc4)c3)cc2s1` [Example 196, N-(6-(5-(4-(trifluoromethyl)phenylsulfonamido)pyridin-3-yl)benzo[d]thiazol-2-yl)acetamide], for which the IC50 in experiment [1] turned out to be 6.7 nM; in experiment [2] (setting [4]) it was 123 nM; in experiment [3], 15.7 nM.

Consider `CC(=O)Nc1nc2ccc(-c3cnc(Cl)c(NS(=O)(=O)C4CCCCC4)c3)cc2s1` [Example 171, N-(6-(6-chloro-5-(cyclohexanesulfonamido)pyridin-3-yl)benzo[d]thiazol-2-yl)acetamide], for which the 50% inhibitory concentration (IC50) in experiment [1] worked out at 3.2 nM; in experiment [2] (setting [5]), 43.3 nM; in experiment [3], 26.3 nM.
